# Molecular target: MAPK14 (human) (UniProt Q16539)
# Assay: Inhibition of MAPK14 Kinase Activity
# Chain of MAPK14 (human) (Q16539 whole entry, looked up): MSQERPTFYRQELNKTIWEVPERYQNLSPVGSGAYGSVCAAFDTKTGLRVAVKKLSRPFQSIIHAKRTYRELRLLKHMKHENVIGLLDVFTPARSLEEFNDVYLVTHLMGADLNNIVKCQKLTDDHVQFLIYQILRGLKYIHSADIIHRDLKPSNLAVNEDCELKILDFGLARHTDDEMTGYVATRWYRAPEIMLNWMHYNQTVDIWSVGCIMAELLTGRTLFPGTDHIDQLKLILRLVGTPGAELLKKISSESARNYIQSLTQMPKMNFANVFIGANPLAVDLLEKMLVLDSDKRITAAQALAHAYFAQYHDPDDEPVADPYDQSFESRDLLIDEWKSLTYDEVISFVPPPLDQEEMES
SMILES,IC50,Ki
CC(C)n1c(NCCNC(N)=O)nc(OCc2ccc(F)cc2F)c(Br)c1=O,14.2 nM,7.04 nM
CC(C)n1c(NCCNC(=O)CO)nc(OCc2ccc(F)cc2F)c(Cl)c1=O,22.1 nM,10.2 nM
CC(C)n1c(N2CCNCC2)nc(OCc2ccc(F)cc2F)c(Br)c1=O,732 nM,379 nM
CC(C)n1c(NC[C@@H](O)CO)nc(OCc2ccc(F)cc2F)c(Br)c1=O,21.6 nM,11.1 nM
CC(C)n1c(N2CCN(C(=O)C(C)(C)N)CC2)nc(OCc2ccc(F)cc2F)c(Br)c1=O,531 nM,222 nM
CC(C)n1c(S(C)(=O)=O)nc(OCc2ccc(F)cc2F)c(Br)c1=O,299 nM,156 nM
CC(C)n1c(-c2cccc(C(N)=O)c2)nc(OCc2ccc(F)cc2F)c(Cl)c1=O,1020 nM,557 nM
COC(=O)c1ccc(CNc2nc(OCc3ccc(F)cc3F)c(Br)c(=O)n2C(C)C)cc1,637 nM,304 nM
CC(C)n1c(OCCNS(C)(=O)=O)nc(OCc2ccc(F)cc2F)c(Br)c1=O,18.5 nM,9.47 nM
CC(C)n1c(OCCNC(=O)NCCO)nc(OCc2ccc(F)cc2F)c(Cl)c1=O,398 nM,190 nM
CC(C)n1c(NCCNC(=O)C(C)(C)O)nc(OCc2ccc(F)cc2F)c(Cl)c1=O,51.6 nM,24.7 nM
CNC(=O)CNc1nc(OCc2ccc(F)cc2F)c(Br)c(=O)n1C(C)C,80 nM,41.9 nM
CC(C)n1c(-c2ccccc2)nc(OCc2ccc(F)cc2F)c(Cl)c1=O,260 nM,144 nM
CC(=O)NCCOc1nc(OCc2ccc(F)cc2F)c(Br)c(=O)n1C(C)C,51 nM,27.4 nM
CC(C)n1c(NCC(N)=O)nc(OCc2ccc(F)cc2F)c(Br)c1=O,14.1 nM,7.03 nM
CC(C)n1c(-c2ccc(C(N)=O)cc2)nc(OCc2ccc(F)cc2F)cc1=O,260 nM,144 nM

# Results, then the compound that gave them:
IC50,Ki,SMILES
864 nM,555 nM,CC(C)n1c(N2CC[C@H](NC(=O)C(C)(C)O)C2)nc(OCc2ccc(F)cc2F)c(Cl)c1=O
267 nM,139 nM,CC(C)n1c(O)nc(OCc2ccc(F)cc2F)c(Cl)c1=O
497 nM,319 nM,CC(C)n1c(N2CC[C@@H](N)C2)nc(OCc2ccc(F)cc2F)c(Cl)c1=O
703 nM,451 nM,CC(=O)N[C@H]1CCN(c2nc(OCc3ccc(F)cc3F)c(Cl)c(=O)n2C(C)C)C1
1660 nM,1070 nM,CC(C)n1c(N2CC[C@H](N)C2)nc(OCc2ccc(F)cc2F)c(Cl)c1=O
256 nM,127 nM,CC(C)n1c(CCCC(N)=O)nc(OCc2ccc(F)cc2F)c(Cl)c1=O
346 nM,155 nM,Cc1nc(OCc2ccc(F)cc2F)c(Cl)c(=O)n1C(C)C
12.8 nM,6.37 nM,CN[C@@H]1CCN(c2nc(OCc3ccc(F)cc3F)c(Br)c(=O)n2C(C)C)C1

# Source: the Kinase Knowledgebase extract (Sharma et al. 2016)
